Entries after “also recorded” stand apart in the source; their conditions may differ.
Experiments:
[1] = system: tonic hind limb convulsions induced by MES; test: Mouse supramaximal electroshock seizure (MES) test; type: in vivo; design: key to Significance of inhibition of tonic hindlimb seizures vs vehicle (Fisher's test): * p < 0.05; *** p < 0.001; ns: Ns: non significantly different from vehicle control (Fisher's test)
Description: The efficacy of (+)-cis-THC was tested in a mouse model of seizure, the maximal electroshock (MES) test.
Mice were administered MES (30 mA, rectangular current: 0.6 ms pulse width, 0.2 s duration, 50 Hz) via corneal electrodes connected to a constant current shock generator (Ugo Basile: type 7801) to reliably produce tonic hind limb convulsions. The number of tonic convulsions was recorded.
Sixteen mice were studied per group. The test was performed blind.
The test substance, (+)-cis-THC, was evaluated at 4 doses (10, 50, 100 and 150 mg/kg), administered i.p. 60 minutes before MES, and compared with a vehicle control group (administered under the same experimental conditions).
Valproate (positive control) was administered at 250 mg/kg i.p. 30 minutes before MES, was used as a reference substance and was compared with a vehicle group (administered i.p. 60 minutes before MES).
Data was analysed by comparing treated groups with the appropriate vehicle control using 2-tailed Fisher's Exact Probability tests (p<0.05 considered significant).

[2] = system: withdrawal threshold on hot plate set at 52° C.; test: Mouse hotplate test (anti-nociception); type: in vivo
Description: The efficacy of (+)-cis-THC was tested in a mouse model of pain, the hotplate test.
Mice underwent a minimum habituation period of 7 days prior to study commencement. Naïve mice were acclimatised to the procedure room in their home cages, with food and water available ad libitum.
Animals were treated with either treatment vehicle, (+)-cis-THC at 1,15, 50,100, 125 and 150 mg/kg at 10 ml/kg i.p. or Morphine 10 mg/kg or Morphine vehicle (Saline) at 10 ml/kg i.p.
Animals were placed onto a hot plate set at 52° C. and time to withdrawal threshold (first response of lifting, licking front or hind paws or trying to escape) was taken at 1-hour post treatment, or at 0.5 hour after the positive control.
Animals were culled by a schedule 1 method, immediately after the measurement.
Data were analysed by comparing withdrawal thresholds back to Vehicle treated group

[3] = depending on the assay; cited from earlier work
[4] = 50 mg/kg I.P., 60 mins before MES
[5] = 100 mg/kg I.P., 60 mins before MES
[6] = 150 mg/kg I.P., 60 mins before MES
[7] = 10 mg/kg I.P., 0.5 hour after treatment, hot plate 52° C.
[8] = 250 mg/kg I.P., 30 mins before MES

Structure (SMILES): CCCCCc1cc(O)c2c(c1)OC(C)(C)[C@@H]1CCC(C)=C[C@H]21 (relative stereo) [(+)-cis-THC, (+)-cis-delta-9-tetrahydrocannabinol]
- Significance of inhibition of tonic hindlimb seizures vs vehicle (Fisher's test) ([1]; 10 mg/kg I.P., 60 mins before MES): ns
- % change from vehicle in number of tonic clonic seizures after MES [1, 4]: 18.8%
- Significance of inhibition of tonic hindlimb seizures vs vehicle (Fisher's test) [1, 4]: ns
- % change from vehicle in number of tonic clonic seizures after MES [1, 5]: 25.0%
- Significance of inhibition of tonic hindlimb seizures vs vehicle (Fisher's test) [1, 5]: ns
- % change from vehicle in number of tonic clonic seizures after MES [1, 6]: 37.5%
- Significance of inhibition of tonic hindlimb seizures vs vehicle (Fisher's test) [1, 6]: * (* p < 0.05)
- Anti-convulsant effect in the MES model (overall) ([1]; 10, 50, 100 and 150 mg/kg i.p. 60 minutes before MES): dose-related increase in the percentage change; also recorded: significant anti-convulsant effect
- Withdrawal threshold (sec) Mean +/− SEM ([2]; 1 mg/kg I.P., 1-hour post treatment, hot plate 52° C.): 10.23 ± 0.64 s
- Withdrawal threshold (sec) Mean +/− SEM ([2]; 15 mg/kg I.P., 1-hour post treatment, hot plate 52° C.): 9.96 ± 0.73 s
- Withdrawal threshold (sec) Mean +/− SEM ([2]; 50 mg/kg I.P., 1-hour post treatment, hot plate 52° C.): 9.80 ± 0.80 s
- Withdrawal threshold (sec) Mean +/− SEM ([2]; 100 mg/kg I.P., 1-hour post treatment, hot plate 52° C.): 10.67 ± 0.77 s
- Withdrawal threshold (sec) Mean +/− SEM ([2]; 125 mg/kg I.P., 1-hour post treatment, hot plate 52° C.): 11.18 ± 1.18 s
- Withdrawal threshold (sec) Mean +/− SEM ([2]; 150 mg/kg I.P., 1-hour post treatment, hot plate 52° C.): 11.68 ± 0.52 s
- Anti-nociceptive effect (withdrawal threshold compared to vehicle) ([2]; all doses tested, 1 to 150 mg/kg i.p.): none of the doses tested produced a significant difference; also recorded: no anti-nociceptive effect

Structure (SMILES): CCCCCc1cc(O)c2c(c1)OC(C)(C)[C@@H]1CCC(C)=C[C@@H]21 [(−)-trans-THC, (−)-trans-delta-9-tetrahydrocannabinol]
- Potency relative to the (+)-trans-THC isomer [3]: 6-100 times

Structure (SMILES): CN1CC[C@]23c4c5ccc(O)c4O[C@H]2[C@@H](O)C=C[C@H]3[C@H]1C5 [Morphine, reference compound]
- Significance of withdrawal threshold vs vehicle control [2, 7]: *** (*** p < 0.001 significant when compared to the corresponding vehicle control (Fisher's test).)
- Withdrawal threshold (sec) Mean +/− SEM [2, 7]: 17.48 ± 1.08 s
- Withdrawal threshold (sec) Mean +/− SEM ([2]; 10 mg/kg I.P., 0.5 hour after treatment, hot plate 52° C., listed as morphine): significant increase in the withdrawal threshold

Structure (SMILES): CCCC(CCC)C(=O)O [Valproate, reference compound]
- % change from vehicle in number of tonic clonic seizures after MES [1, 8]: 100.0%
- Significance of inhibition of tonic hindlimb seizures vs vehicle (Fisher's test) [1, 8]: *** (*** p < 0.001)
- % change from vehicle in number of tonic clonic seizures after MES ([1]; 250 mg/kg I.P., 30 mins before MES, listed as valproate): 100%

From US20220387377A1, “(+)-CIS TETRAHYDROCANNABINOL ((+)-CIS-THC) FOR USE AS A MEDICAMENT” (GW Research Limited, priority 2019, published 2022)
